Source: patent US8409603B2, “Compositions and methods for tissue engineering, tissue regeneration and wound healing” (University of South Carolina, priority 2009, dated 2013)

Test system: lens epithelial cells
Assay: Toroid (ring) formation by cells added onto polymerized collagen gel
Type: cell-based
Conditions: addition to the culture fluid of 3-30 ng
Experimental: FIG. 1 illustrates examples of toroids generated from EMT-primed lens epithelial cells; a-c) a control series of 3 toroids generated in regular media, d-f) a control series of 3 toroids generated in media containing a control peptide and g-h) a series of 3 toroids generated in media containing a an ACT1 peptide in combination with Tgfb1.
In a variation on this protocol, cells were added onto an already polymerized gel and the gel was detached after 24 hours of culture. Following a subsequent 24 hours it was noted that quite unlike what was observed when cells were pre-mixed into the gel, cells added post-polymerization always formed into uniform circular rings of repeatable diameter (FIG. 1b). […] Confocal microscopy of rhodamine-phalloidin and nuclear-DAPI stained gels indicated a two-phase structure with cells undergoing recruitment at the outer rim arranging in radial spoke-like arrays (FIG. 1e), whereas cells in on the inner rim organized into a contractile ring (FIG. 1f). […] This experiment was repeated with REC cells (Wada A M, Smith T K, Osler M E, Reese D E, Bader D M. Epicardial/Mesothelial cell line retains vasculogenic potential of embryonic epicardium. Circ Res. 2003 Mar. 21; 92(5):525-31. Epub 2003 Feb. 6, incorporated by reference herein), a rat […] with similar effect. […]

TGF-b
ring size of toroid: predictably altered
